Data reported in patent US20260193647A1, “MIRNA-BASED CANCER THERAPY WITH A TUMOR-NAVIGATING PEPTIDE” (The Board of Trustees of the Universities of Illinois, priority 2022, published 2026).

What was measured:
[1] = tested on: genes associated with the EGFR, p53 and TGF pathways; assay: qPCR of downstream targets of miR-20a; type: cell-based, human; settings: 10 nM, 24 hr
[2] = tested on: SJ-GBM2, CHLA-200, LN-229 and astrocytes; assay: Intracellular entry by qPCR detection of antisense miR-20a; type: cell-based, human; settings: 1, 10, 100 and 1,000 nM, 24 hr
From the text: Micro RNA enriched fraction was extracted using the miRNeasy Mini Kit (Qiagen, Catalog #217004) following the manufacturer's instructions. Stem loop real-time qPCR was used to analyze miRNA expression. We designed miR-20a stem loop RT primers and amplification primers according to a previously described method 79. cDNA was synthesized from extracted RNA using unique stem loop RT primers. The sequence of the stem loop primer for miR-20a was 5′-[…]-3′ (SEQ ID NO:7). Reverse transcriptase reactions contained the following reagents: 10 ng of RNA sample, 60 nM stem-loop RT primer, 1×RT buffer, 0.25 mM dNTP, and 4 U/μl reverse transcriptase. Reactions were performed by incubation at 16° C. for 30 min, 42° C. for 30 min and 85° C. for 5 min. Real-time PCR (7300 Real time PCR Systems, Applied Biosystems, CA) was performed using the specific forward primer for miR-20a (5′-[…]-3′ (SEQ ID NO:8)) and a universal reverse primer (5′-GTGCA GGGTC CGAGGT-3′ (SEQ ID NO:9)). The 20-μl PCR mixture included 1×SYBR Premix (Invitrogen), 2 μl of RT products and each forward and reverse primer at 10 nM. Reactions were performed by incubation in a 96-well plate at 95° C. for 30 sec, followed by 35 cycles of 95° C. for 30 sec and 60° C. for 30 sec. U6 was used as an internal control to normalize the level of target miRNAs. […]

[3] = tested on: 3D Human Blood Brain Barrier Model
Method: Permeability experiments were carried out in a 3D Human Blood Brain Barrier Model kit (Alphabioregen, Catalog #EP010). The BBB kits were activated following the manufacturer's instructions. Briefly, the BBB model was thawed using BBB growth medium (#BBB-GM001) and incubated overnight with fresh BBB growth medium. The model was incubated with Endo-Neuro-Pharmaceuticals medium (#NMBBB001) for 3 days. AmiR20-p28 was prepared in assay buffer (Dulbecco's PBS containing CaCl2 and MgCl4, 100 mM HEPES, pH 7.0, 25 mM D-glucose). The permeability of AmiR20-p28 was measured in two directions: apical to basolateral (A-B) and basolateral to apical (B-A). The apical side represented the blood, and the basolateral side represented the brain tissue. For transport, the inserts from the BBB wells were transferred to another well containing prewarmed assay buffer. Depending on the direction, the medium in the donor compartment of the BBB model was replaced with AmiR20-p28. The plate was incubated for 30 min at 37° C. Samples were then collected from the donor and acceptor compartments and analyzed by real-time PCR. The concentrations of AmiR20-p28 in the compartments were calculated based on a standard curve developed with AmiR20-p28 at 1, 10, 100 and 1,000 nM and its relative Ct value obtained from real-time PCR. […]

normal human astrocytes = assay: CCK-8 cell viability assay, normal human astrocytes; type: cell-based; settings: 24 hr
Method: (§2) Cell viability was evaluated by a CCK-8 assay (Dojindo, Japan). Cells were seeded at a density of 4,000 cells per well in 100 μl of growth medium in 96-well plates and grown overnight. Then, the cells were exposed to antisense miR-20a alone, p28 alone or negative control or AmiR20-p28 over a range of concentrations and incubated for 24 hr. According to the manufacturer's instructions, 10 μl of CCK-8 solution was added to each well, followed by incubation for 1 hr at 37° C. The absorbance at 450 nm was determined by a multiplate reader.
(§3) Cell viability (%)=Abs(sample)−Abs(blank)/Abs(no treatment)−Abs(blank)×100

aGBM (LN-229) cells = assay: Annexin V/PI flow cytometric apoptosis assay, aGBM (LN-229); type: cell-based, human; settings: 10 nM, 24 h
Method: (§1) Cells were seeded into 10-cm dishes and cultured overnight. Then, the cells were treated with 10 nM antisense miR-20a alone, p28 alone or AmiR20-p28 for 24 hr. Cells were washed with 1×PBS, detached with TrypleE (Invitrogen). and collected by centrifugation. Cells were washed and resuspended with 1× Annexin binding buffer (Life Technologies, catalog #V13242), and the cell density was maintained at 10^6 cells/ml. Subsequently, 5 μl of Annexin-V was added to 100 μl of the cell suspension, and the mixture was incubated for 15 min at room temperature. The cells were washed and incubated with 5 μl of PI for an additional 15 min on ice, washed and resuspended in 200 μl of buffer. Cells without treatment were used as controls. After washing, cells were subjected to flow cytometry (Gallios flow cytometer) and analyzed with Kaluza software to give the proportions of dead (top left quadrant), late apoptotic (top right quadrant), early apoptotic (bottom right quadrant) and viable (bottom left quadrant) cells.

SJ-GBM2 cells = assay: Annexin V/PI flow cytometric apoptosis assay, SJ-GBM2; type: cell-based, human; settings: 10 nM, 24 h
Method: as §1

CHLA-200 cells = type: cell-based, human; settings: 24 hr; read-out: IC50 (cell viability)
Method: as §2, §3

## AmiR20-p28: BBB-permeable tumor-navigating CPP p28 (Cys-p28) covalently linked to 2′ O-methyl antisense miR-20a (5′-maleimide)
[1]; LN-229 cells
  EGFR expression levels: decreased EGFR expression levels
  expression of p53, p21, Bax and E2F: significantly increased
[1]; SJ-GBM2 and CHLA-200 cells
  expression levels of EGFR, Ras, MEK1, ERK1, c-Fos, c-Jun, β-catenin, TCF-1 and Lef1 genes: significantly decreased
  expressions of p53, p21, Bax, and E2F: robust increase
[1]; normal human astrocytes
  gene expression levels: no significant effect on gene expression levels
[2]
  penetration into pGBM and aGBM cells (qPCR of antisense miR-20a): preferential and dose-dependent penetration
[3]
  efflux Papp (B-A): 0.95 ×10⁻⁶ cm/s
  influx Papp (A-B): 4.39 ×10⁻⁶ cm/s
Normal human astrocytes
  effect on cell viability: negligible
aGBM (LN-229) cells
  apoptotic cells after treatment: 6.7%
SJ-GBM2 cells
  increase in apoptotic cells by: 16%
CHLA-200 cells
  IC50: 11 nM
